# Literature values in US7163917B2, “Synthesis method of alanylglutamine” (priority 2002, dated 2007).
# Peptide text beside a SMILES is read from it.
# Legend:
# [1] = healthy human body, long period intravenous drip
# [2] = within human body; quickly degraded into composition amino acids
# [3] = solution, storage, heating to sterilize
# [4] = background statement
smiles,measurement,setting,value
"NC(=O)CC[C@H](N)C(=O)O [GLN, glutamine]",solubility (in words),,low in solubility
"C[C@H](N)C(=O)N[C@@H](CCC(N)=O)C(=O)O [L-Ala-L-Gln, L-alanyl-L-glutamine] (H-Ala-Gln-OH)",solubility relative to GLN monomer,"synthesized by chemical method, after purification",20 times
same,kidney functions,[1],not influenced
same,side effects and harmful reaction,[1],no side effects and harmful reaction occur
same,half-life (in words),[2],short
same,stability (in words),[3],stable in storage and at heating for sterilization
"CC(=O)N[C@@H](CCC(N)=O)C(=O)O [acetylglutamine, reference compound]",quantity absorbed that is excreted from urea,[4],40%
same,stability (in words),[3],stable at heating
"NCC(=O)N[C@@H](CCC(N)=O)C(=O)O [glycylglutamine, L-glycyl-L-glutamine, reference compound] (H-Gly-Gln-OH)",half-life (in words),[2],short
